Measured values from the Kinase Knowledgebase extract (Sharma et al. 2016).

How the values were obtained:
EGFR (human) [1] = molecular target: EGFR (human) (UniProt P00533); conditions: 786-0
EGFR (human) [2] = molecular target: EGFR (human) (UniProt P00533); conditions: uacc-257
EGFR (human) [3] = molecular target: EGFR (human) (UniProt P00533); conditions: sr
EGFR (human) [4] = molecular target: EGFR (human) (UniProt P00533); conditions: sw 620
EGFR (human) [5] = molecular target: EGFR (human) (UniProt P00533); conditions: igr-ovi
EGFR (human) [6] = molecular target: EGFR (human) (UniProt P00533); conditions: sk-mel-28
EGFR (human) [7] = molecular target: EGFR (human) (UniProt P00533); conditions: mcf7/adr-res
EGFR (human) [8] = molecular target: EGFR (human) (UniProt P00533); conditions: sk-mel-5
EGFR (human) [9] = molecular target: EGFR (human) (UniProt P00533); conditions: hn5
EGFR (human) [10] = molecular target: EGFR (human) (UniProt P00533); conditions: hl60tb
EGFR (human) [11] = molecular target: EGFR (human) (UniProt P00533); conditions: hop-92
EGFR (human) [12] = molecular target: EGFR (human) (UniProt P00533); conditions: caki-1
EGFR (human) [13] = molecular target: EGFR (human) (UniProt P00533); conditions: delta
EGFR (human) [14] = molecular target: EGFR (human) (UniProt P00533); conditions: a549
EGFR (human) [15] = molecular target: EGFR (human) (UniProt P00533); conditions: u251
EGFR (human) [16] = molecular target: EGFR (human) (UniProt P00533); conditions: sf-295

Chain of EGFR (human) (P00533 whole entry, looked up): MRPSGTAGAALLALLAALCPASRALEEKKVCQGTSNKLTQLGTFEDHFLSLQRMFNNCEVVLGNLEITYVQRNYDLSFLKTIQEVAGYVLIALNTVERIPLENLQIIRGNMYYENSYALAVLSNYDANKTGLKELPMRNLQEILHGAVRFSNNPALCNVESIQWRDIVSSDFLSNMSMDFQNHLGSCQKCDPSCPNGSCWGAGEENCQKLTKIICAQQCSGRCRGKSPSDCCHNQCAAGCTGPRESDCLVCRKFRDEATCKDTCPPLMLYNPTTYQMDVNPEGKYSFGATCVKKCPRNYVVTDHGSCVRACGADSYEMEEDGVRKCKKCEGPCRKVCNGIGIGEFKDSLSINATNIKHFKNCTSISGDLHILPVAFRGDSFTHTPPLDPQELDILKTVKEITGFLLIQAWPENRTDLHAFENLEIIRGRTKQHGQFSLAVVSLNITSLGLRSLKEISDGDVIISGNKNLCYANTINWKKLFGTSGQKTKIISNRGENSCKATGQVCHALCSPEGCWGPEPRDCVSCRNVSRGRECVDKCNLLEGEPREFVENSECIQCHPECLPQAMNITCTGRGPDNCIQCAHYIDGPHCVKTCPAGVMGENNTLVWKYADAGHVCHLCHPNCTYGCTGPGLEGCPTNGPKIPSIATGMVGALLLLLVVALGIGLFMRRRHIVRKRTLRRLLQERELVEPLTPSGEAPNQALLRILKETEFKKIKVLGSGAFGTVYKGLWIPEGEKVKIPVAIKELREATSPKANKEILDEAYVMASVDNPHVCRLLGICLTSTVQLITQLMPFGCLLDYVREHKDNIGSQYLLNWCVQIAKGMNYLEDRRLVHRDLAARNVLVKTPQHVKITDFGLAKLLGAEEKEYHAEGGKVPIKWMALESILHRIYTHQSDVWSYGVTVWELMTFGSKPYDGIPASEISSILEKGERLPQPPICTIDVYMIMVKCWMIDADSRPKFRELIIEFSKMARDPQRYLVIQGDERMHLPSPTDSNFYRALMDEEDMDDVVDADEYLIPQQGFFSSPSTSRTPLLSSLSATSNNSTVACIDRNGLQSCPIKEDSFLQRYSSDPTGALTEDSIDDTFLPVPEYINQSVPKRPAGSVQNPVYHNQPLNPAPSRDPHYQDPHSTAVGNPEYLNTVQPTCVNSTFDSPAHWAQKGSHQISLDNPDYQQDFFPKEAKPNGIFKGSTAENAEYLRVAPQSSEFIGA

Work on `N#CC(C#N)=Cc1csc([N+](=O)[O-])c1` yielded a GI50 (EGFR (human) [1]) of 33.9 µM, a GI50 (EGFR (human) [2]) of 19 µM and a GI50 (EGFR (human) [3]) of 30.2 µM. The GI50 (EGFR (human) [4]) was 43.6 µM, the GI50 (EGFR (human) [5]) was 24 µM and the GI50 (EGFR (human) [6]) was 16.2 µM. The GI50 (EGFR (human) [7]) was 37.1 µM, the GI50 (EGFR (human) [8]) was 15.8 µM and the IC50 (EGFR (human) [9]) was 40.4 µM. For the same compound, the GI50 (EGFR (human) [10]) was 42.6 µM, the GI50 (EGFR (human) [11]) was 30.9 µM and the GI50 (EGFR (human) [12]) was 24.5 µM. For the same compound, the GI50 (EGFR (human) [13]) was 1.99 µM and the GI50 (EGFR (human) [14]) was > 100 µM.
`CCOC(=O)/C(C#N)=C/c1ccc([N+](=O)[O-])s1` gave a GI50 (EGFR (human) [1]) of 10.7 µM, a GI50 (EGFR (human) [2]) of 2.09 µM and a GI50 (EGFR (human) [3]) of 3.02 µM. The GI50 (EGFR (human) [4]) was 1.48 µM, the GI50 (EGFR (human) [5]) was 1.66 µM and the GI50 (EGFR (human) [6]) was 2.95 µM. For the same compound, the GI50 (EGFR (human) [7]) was 3.47 µM, the GI50 (EGFR (human) [8]) was 1.2 µM and the IC50 (EGFR (human) [9]) was 5.4 µM. For the same compound, the GI50 (EGFR (human) [10]) was 0.28 µM, the GI50 (EGFR (human) [11]) was 11.5 µM and the GI50 (EGFR (human) [12]) was 2.14 µM. The GI50 (EGFR (human) [15]) was 13.5 µM, the GI50 (EGFR (human) [13]) was 12 µM and the GI50 (EGFR (human) [16]) was 2.09 µM. It also gave a GI50 (EGFR (human) [14]) of 15.5 µM.
For `N#CC(C#N)=C(N)/C(C#N)=C/c1ccc([N+](=O)[O-])s1`, the GI50 (EGFR (human) [1]) was 19.9 µM, the GI50 (EGFR (human) [2]) was 10.5 µM and the GI50 (EGFR (human) [3]) was 12 µM. It also gave a GI50 (EGFR (human) [4]) of 3.23 µM, a GI50 (EGFR (human) [5]) of 7.24 µM and a GI50 (EGFR (human) [6]) of 17 µM. The GI50 (EGFR (human) [7]) was 21.4 µM, the GI50 (EGFR (human) [8]) was 7.58 µM and the IC50 (EGFR (human) [9]) was 8.4 µM. It also gave a GI50 (EGFR (human) [12]) of 18.2 µM, a GI50 (EGFR (human) [15]) of 18.6 µM and a GI50 (EGFR (human) [13]) of 4.07 µM. For the same compound, the GI50 (EGFR (human) [16]) was 17.4 µM.
